Results taken from US20230219904A1 (SYNGENTA CROP PROTECTION AG, priority 2020, published 2023).

Legend:
Type in all cases: in vivo
Conditions in all cases: applied at 125 g/ha, evaluated after 13 days
[1] = system: Amaranthus retoflexus (AMARE); assay: Post-emergence herbicidal glasshouse test (Table B1)
Method: (§1) Seeds of a variety of test species are sown in standard soil in pots (Lolium perenne (LOLPE), Amaranthus retoflexus (AMARE), Abutilon theophrasti (ABUTH), Setaria faberi (SETFA), Echinochloa crus-galh (ECHCG), Ipomoea hederacea (IPOHE)). After cultivation for one day (pre-emergence) or after 8 days cultivation (post-emergence) under controlled conditions in a glasshouse (at 24/16° C., day/night; 14 hours light; 65% humidity), the plants are sprayed with an aqueous spray solution derived from the formulation of the technical active ingredient in acetone/water (50:50) solution containing 0.5% Tween 20 (polyoxyethelyene sorbitan monolaurate, CAS RN 9005-64-5). Compounds are applied at 500 g/h unless otherwise indicated. The test plants are then grown in a glasshouse under controlled conditions in a glasshouse (at 24/16° C., day/night; 14 hours light; 65% humidity) and watered twice daily. After 13 days for pre and post-emergence, the test is evaluated for the percentage damage caused to the plant. The biological activities are shown in the following table on a five-point scale (5=80-100%; 4=60-79%; 3=40-59%; 2=20-39%; 1=0-19%).

[2] = system: Echinochloa crus-galh (ECHCG); assay: as above
Method: as §1

[3] = system: Setaria faberi (SETFA); assay: as above
Method: as §1

[4] = system: Ipomoea hederacea (IPOHE); assay: as above
Method: as §1

[5] = system: Abutilon theophrasti (ABUTH); assay: Pre-emergence herbicidal glasshouse test (Table B1)
Method: as §1

[6] = system: Amaranthus retoflexus (AMARE); assay: as above
Method: as §1

[7] = system: Echinochloa crus-galh (ECHCG); assay: as above
Method: as §1

[8] = system: Setaria faberi (SETFA); assay: as above
Method: as §1

[9] = system: Ipomoea hederacea (IPOHE); assay: as above
Method: as §1

SMILES | POST Application AMARE, percentage damage on five-point scale [1] | POST Application ECHCG, percentage damage on five-point scale [2] | POST Application SETFA, percentage damage on five-point scale [3] | POST Application IPOHE, percentage damage on five-point scale [4] | PRE Application ABUTH, percentage damage on five-point scale [5] | PRE Application AMARE, percentage damage on five-point scale [6] | PRE Application ECHCG, percentage damage on five-point scale [7] | PRE Application SETFA, percentage damage on five-point scale [8] | PRE Application IPOHE, percentage damage on five-point scale [9]
Cn1nnnc1NC(=O)c1ccc(OC(F)F)c(NC(=O)c2cc(C(F)(F)F)ccn2)c1Cl [Compound 1.053] | 5 (5=80-100%) | 3 (3=40-59%) | 5 (5=80-100%) | 4 (4=60-79%) | 5 (5=80-100%) | 5 (5=80-100%) | 4 (4=60-79%) | 4 (4=60-79%) | 4 (4=60-79%)
CCOCCC(=O)Nc1c(OC(F)(F)F)ccc(C(=O)Nc2nnnn2C)c1Cl [Compound 1.057] | 5 (5=80-100%) | 5 (5=80-100%) | 5 (5=80-100%) | 4 (4=60-79%) | 5 (5=80-100%) | 5 (5=80-100%) | 5 (5=80-100%) | 4 (4=60-79%) | 5 (5=80-100%)
COCCCC(=O)Nc1c(OC(F)(F)F)ccc(C(=O)Nc2nnnn2C)c1Cl [Compound 1.058] | 4 (4=60-79%) | 5 (5=80-100%) | 4 (4=60-79%) | 4 (4=60-79%) | 5 (5=80-100%) | 5 (5=80-100%) | 5 (5=80-100%) | 3 (3=40-59%) | 5 (5=80-100%)
Cn1nnnc1NC(=O)c1ccc(OC(F)(F)F)c(NC(=O)C(F)F)c1Cl [Compound 1.059] | 5 (5=80-100%) | 5 (5=80-100%) | 4 (4=60-79%) | 3 (3=40-59%) | 5 (5=80-100%) | 5 (5=80-100%) | 4 (4=60-79%) | 1 (1=0-19%) | 3 (3=40-59%)
CCn1nnnc1NC(=O)c1ccc(OC(F)(F)F)c(NC(=O)C(C)(F)F)c1Cl [Compound 1.060] | 5 (5=80-100%) | 4 (4=60-79%) | 5 (5=80-100%) | 4 (4=60-79%) | 5 (5=80-100%) | 5 (5=80-100%) | 4 (4=60-79%) | 4 (4=60-79%) | 3 (3=40-59%)
CCn1nnnc1NC(=O)c1ccc(OC(F)(F)F)c(NC(=O)CCCOC)c1Cl [Compound 1.067] | 5 (5=80-100%) | 5 (5=80-100%) | 5 (5=80-100%) | 4 (4=60-79%) | 5 (5=80-100%) | 5 (5=80-100%) | 5 (5=80-100%) | 5 (5=80-100%) | 5 (5=80-100%)
CCC(COC)C(=O)Nc1c(OC(F)(F)F)ccc(C(=O)Nc2nnnn2CC)c1Cl (stereo not drawn) [Compound 1.069] | 4 (4=60-79%) | 5 (5=80-100%) | 5 (5=80-100%) | 4 (4=60-79%) | 5 (5=80-100%) | 5 (5=80-100%) | 5 (5=80-100%) | 5 (5=80-100%) | 4 (4=60-79%)
CCCOCC(=O)Nc1c(OC(F)(F)F)ccc(C(=O)Nc2nnnn2CC)c1Cl [Compound 1.070] | 4 (4=60-79%) | 4 (4=60-79%) | 4 (4=60-79%) | 4 (4=60-79%) | 5 (5=80-100%) | 5 (5=80-100%) | 4 (4=60-79%) | 4 (4=60-79%) | 4 (4=60-79%)
CCn1nnnc1NC(=O)c1ccc(OC(F)(F)F)c(NC(=O)C(C)OC)c1Cl (stereo not drawn) [Compound 1.071] | 4 (4=60-79%) | 5 (5=80-100%) | 5 (5=80-100%) | 4 (4=60-79%) | 5 (5=80-100%) | 5 (5=80-100%) | 5 (5=80-100%) | 5 (5=80-100%) | 5 (5=80-100%)
CCn1nnnc1NC(=O)c1ccc(OC(F)(F)F)c(NC(=O)COC(C)C)c1Cl [Compound 1.072] | 4 (4=60-79%) | 5 (5=80-100%) | 5 (5=80-100%) | 4 (4=60-79%) | 5 (5=80-100%) | 5 (5=80-100%) | 5 (5=80-100%) | 4 (4=60-79%) | 5 (5=80-100%)
CCOC(C)C(=O)Nc1c(OC(F)(F)F)ccc(C(=O)Nc2nnnn2CC)c1Cl (stereo not drawn) [Compound 1.073] | 5 (5=80-100%) | 5 (5=80-100%) | 5 (5=80-100%) | 4 (4=60-79%) | 5 (5=80-100%) | 5 (5=80-100%) | 5 (5=80-100%) | 5 (5=80-100%) | 5 (5=80-100%)
CCOCC(=O)Nc1c(OC(F)(F)F)ccc(C(=O)Nc2nnnn2CC)c1Cl [Compound 1.074] | 5 (5=80-100%) | 5 (5=80-100%) | 5 (5=80-100%) | 5 (5=80-100%) | 5 (5=80-100%) | 5 (5=80-100%) | 4 (4=60-79%) | 4 (4=60-79%) | 5 (5=80-100%)
CCn1nnnc1NC(=O)c1ccc(OC(F)(F)F)c(NC(=O)C2(C)CC2)c1Cl [Compound 1.075] | 4 (4=60-79%) | 4 (4=60-79%) | 5 (5=80-100%) | 4 (4=60-79%) | 5 (5=80-100%) | 5 (5=80-100%) | 5 (5=80-100%) | 5 (5=80-100%) | 5 (5=80-100%)
CCC(C)C(=O)Nc1c(OC(F)(F)F)ccc(C(=O)Nc2nnnn2CC)c1Cl (stereo not drawn) [Compound 1.076] | 4 (4=60-79%) | 5 (5=80-100%) | 4 (4=60-79%) | 4 (4=60-79%) | 5 (5=80-100%) | 5 (5=80-100%) | 5 (5=80-100%) | 5 (5=80-100%) | 5 (5=80-100%)
